Assay results reported in patent publication US20260325546A1, “METHODS OF TREATMENT USING DRY POWDER COMPOSITIONS OF TREPROSTINIL PRODRUGS” (Insmed Incorporated, priority 2024, published 2026).

Legend:
healthy adults = experiment: Phase I single-dose safety and tolerability study of TPIP in healthy adults; assay type: in vivo, human
Procedure: Specifically, in a Phase I safety, tolerability, and PK study, healthy adults were administered single doses of 112.5 μg, 225 μg, 450 μg, and 675 μg of a compound of Formula (II).

[1] = system: subjects with pulmonary hypertension, including pulmonary arterial hypertension; experiment: Phase 2 safety and efficacy study in subjects with pulmonary hypertension; assay type: in vivo, human
Procedure: In a Phase 2 safety and efficacy study, the following doses of were investigated in subjects with pulmonary hypertension, including pulmonary arterial hypertension: 80 μg, 160 μg, 240 μg, 320 μg, 400 μg, 480 μg, and 640 μg. In this study, patients were administered a starting dose of 80 μg of the TPIP and the dose was titrated up to 640 μg according to FIG. 2.

[2] = Nonclinical studies of TP: conversion of prodrug to treprostinil; assay type: in vitro ADME; conditions: nonclinical (in vitro and in vivo)
Excerpt: (§1) Treprostinil palmitil (TP) is a hexadecyl ester prodrug of treprostinil (TRE). In the lung, TP is hydrolyzed by esterases to TRE and hexadecanol.

[3] = Nonclinical studies of TP: delivery / PK and PD profile; assay type: in vivo
Excerpt: as §1

rodent model of PAH = experiment: Rodent model of PAH; assay type: in vivo; conditions: inhibits associated adverse pathology and pathophysiology
Excerpt: as §1

[4] = Preclinical safety / toxicology of TP; assay type: in vivo; conditions: nonclinical
Excerpt: as §1

## CCCCCCCCCCCCCCCCOC(=O)COc1cccc2c1C[C@H]1C[C@@H](O)[C@H](CC[C@@H](O)CCCCC)[C@H]1C2 [treprostinil palmitil]
Healthy adults; single doses 112.5, 225, 450, 675 μg
  serious or severe TEAEs (printed TEALs): no serious or severe TEALs were observed
Healthy adults; single doses 112.5, 225, 450, 675 μg / highest doses tested
  safety and tolerability: safe and well-tolerated
[1]; 80 μg to 640 μg, titrated
  tolerability: well tolerated
[1]; 640 μg, highest dose administered in a clinical trial
  tolerability of 640 μg: well tolerated
[1]; higher doses
  efficacy at higher doses: promising efficacy
[2]
  conversion to treprostinil: converted from the prodrug to the active drug, treprostinil
[3]
  delivery of treprostinil: sustained delivery of treprostinil to the lungs and systemic circulation
Rodent model of PAH
  efficacy in PAH model: efficacious in a rodent model of PAH
[4]
  preclinical safety: did not demonstrate concerning preclinical safety or toxicological findings
